This is an account of results in US20190231757A1, “COMBINATION OF SPLEEN TYROSINE KINASE INHIBITORS AND OTHER THERAPEUTIC AGENTS” (Takeda Pharmaceutical Company Limited, priority 2016, published 2019).

For data set [1] the following is noted: Day 0 to Day 21; Compound A 30 mg/kg; bendamustine 1 mg/kg; rituximab 1 mg/kg; alone or combined.
Data set [2] concerns OCI-Ly10 human DLBCL xenografts. The data set can be described thus: Antitumor activity in SCID mice bearing OCI-Ly10 human DLBCL xenografts, ibrutinib or bendamustine combination (Example 5). The note with it: Day 21, Compound A 60 mg/kg PO QD, ibrutinib 6 mg/kg PO QD, bendamustine 1 mg/kg IV BIW (6 doses), alone or combined with Compound A. The class given is in vivo, mouse. A general note: Xenograft models place foreign cells or tissue in a host animal.

The next data set deals with Ly19 xenografts. The data set can be described thus: Antitumor activity in SCID mice bearing Ly19 xenografts, bendamustine combination (Example 4). The class given is in vivo, mouse. The conditions noted are these: for Mean Tumor Volume (mm^3) ± SEM at Day 14 / TGI (%): Day 14; for dAUC: vs vehicle.
The nature of data set [3]: Body weight and tolerability, Ly19 bendamustine study (Example 4). The conditions noted are these: for body weight Change (%), Day 3: Day 3 vs Day 0; for body weight Change (%), Day 7: Day 7 vs Day 0; for body weight Change (%), Day 10: Day 10 vs Day 0; for body weight Change (%), Day 14: Day 14 vs Day 0.
The nature of data set [4]: Body weight and tolerability, TMD8 bendamustine study (Example 3). The conditions noted are these: Compound A 60 mg/kg PO QD 14 d, alone or combined.
For a further data set, the system named is TMD8 DLBCL xenografts. Briefly: Antitumor activity in CB17 SCID mice bearing TMD8 DLBCL xenografts, bendamustine combination (Example 3). The class given is in vivo, mouse. The note with it: bendamustine 1 mg/kg IV BIW, alone or combined, Day 14.
In data set [5] the test system is OCI-Ly10 human lymphoma xenografts. The data set can be described thus: Antitumor activity in SCID mice bearing OCI-Ly10 human lymphoma xenografts, bendamustine and rituximab (Example 6). The class given is in vivo, mouse. The note with it: Day 21; Compound A 30 mg/kg PO QD x21; bendamustine 1 mg/kg IV BIW; rituximab 1 mg/kg IV QW x3; alone or combined.
Data set [6] has the same test system. The data set can be described thus: Antitumor activity in SCID mice bearing OCI-Ly10 human lymphoma xenografts, lenalidomide combination (Example 10). In kind it is in vivo, mouse. The note with it: alone or combined.
The conditions of data set [7]: Day 0 to Day 21; Compound A 60 mg/kg; lenalidomide 10 mg/kg; alone or combined.
The mark [8] stands for this setting: Compound A 60 mg/kg PO QD x14, bendamustine 1.0 mg/kg IV BIW x2, alone or combined.
The mark [9] stands for this setting: bendamustine 2.0 mg/kg IV BIW x2, alone or with Compound A 60 mg/kg PO QD x14.
[10] abbreviates: Compound A 60 mg/kg, bendamustine 1.0 mg/kg, alone or combined.
Setting [11] is: bendamustine 2.0 mg/kg, alone or with Compound A 60 mg/kg.

Molecules are shown by their SMILES.

By TGI is commonly meant the reduction of tumour growth relative to the control group. Turning to `Cn1c(CCCC(=O)O)nc2cc(N(CCCl)CCCl)ccc21` [bendamustine], in data set [1], the “Maximum mean % BWL” value worked out at 0%. Further, in data set [2], the inhibition of tumour growth (TGI) is given as 43.7%. In addition, the inhibition of tumour growth (TGI) in data set [2] (listed as Bendamustine) worked out at 43.7%. For the same compound, in the data set on Ly19 xenografts (setting [8]), the “Mean Tumor Volume (mm^3) ± SEM at Day 14” value is recorded as 2092.9 ± 175.8 mm^3 and the “TGI (%)” value was 16.2%. For the same compound, in the data set on Ly19 xenografts (setting [9]), the “Mean Tumor Volume (mm^3) ± SEM at Day 14” value was 2029.8 ± 248.8 mm^3 and the “TGI (%)” value is on record as 18.7%. Besides, the dAUC with Ly19 xenografts (setting [10]) is 10.9. Moreover, the dAUC in the data set on Ly19 xenografts (setting [11]) is 11.9. Moreover, the “animal body weight (g), Day 0” value in data set [3] (Day 0, Compound A 60 mg/kg PO QD x14, bendamustine 1.0 mg/kg IV BIW x2, alone or combined, mean of 8) was 19.7 g. Besides, the “animal body weight (g), Day 3” value in data set [3] (Day 3, Compound A 60 mg/kg, bendamustine 1.0 mg/kg, alone or combined) stood at 19.9 g. In [3] (setting [10]), the “body weight Change (%), Day 3” value is on record as “+0.9%”; the “body weight Change (%), Day 7” value is given as “+3.7%”; the “animal body weight (g), Day 10” value was 21.2 g; the “body weight Change (%), Day 10” value is given as “+7.7%”. In [3] (setting [10]), the “animal body weight (g), Day 14” value turned out to be 22.3 g and the “body weight Change (%), Day 14” value is listed as “+13.1%”. Besides, in data set [3] (setting [11]), the “body weight Change (%), Day 3” value was “+2.0%”; the “body weight Change (%), Day 7” value is given as “+3.2%”; the “animal body weight (g), Day 10” value worked out at 21.7 g; the “body weight Change (%), Day 10” value is given as “+6.2%”. Besides, in [3] (setting [11]), the “animal body weight (g), Day 14” value is 22.6 g and the “body weight Change (%), Day 14” value is given as “+10.8%”. In addition, the “% BW Change (Day Maximum)” value in data set [4] (bendamustine 1 mg/kg IV BIW 14 d, maximum change within treatment period) is 13.1 (14) %. In data set [4] (bendamustine 1 mg/kg IV BIW), the “Number of animals removed” value is 0. In addition, the “Mean Tumor Volume (mm^3) ± SEM” value in the data set with TMD8 DLBCL xenografts (Compound A 60 mg/kg PO QD 14 d) was 1,529.2 ± 275.9 mm^3. Moreover, in the data set on TMD8 DLBCL xenografts (Compound A 60 mg/kg PO QD), the T/C was determined as 0.87 and the “TGI (%)” value was 13.4%. The TGI in data set [5] stood at 49.7%.

In the case of `Nc1cccc2c1CN(C1CCC(=O)NC1=O)C2=O` (centres unmarked) [lenalidomide], in data set [6] (Day 21, Compound A 60 mg/kg PO QD x21, lenalidomide 10 mg/kg PO QD x21), the inhibition of tumour growth (TGI) is reported as 21.1%. Besides, the ΔAUC in data set [6] (vs vehicle, Compound A 60 mg/kg, lenalidomide 10 mg/kg) is reported as 15.2 (p = 0.014). Besides, the “Mean maximum % BWL” value in data set [7] amounted to 0%.
